Measurements published in US5288709A, “Erythromycin derivatives” (priority 1991, dated 1994).
Converted amounts (≈) assume the structure as drawn. Where two headings read alike, the source gives them in different places.

Key:
Experiment in all cases: In-vitro antimicrobial activity primary screen (agar dilution MIC)
Type in all cases: cell-based
[1] = test system: Enterobacter aerogenes ATCC 13048; settings: Klebsiella aerogenes, ATCC13048; Enterobacter aerogenes ATCC 13048; BHI agar, 20-24 h; read-out: MIC
Procedure: (§1) The antimicrobial spectra of several of the compounds of the present invention were tested as described below.
(§2) Twelve petri dishes containing successive aqueous dilutions of the test compounds, mixed with 10 mL of sterilized Brain Heart Infusion (BHI) agar (Difco 0418-01-5), were prepared. Each plate was inoculated with 1:100 (or 1:10 for slow growing strains (primarily Micrococcus and Streptococcus) dilutions of up to 32 different microorganisms, using a Steers replicator block. The inoculated plates were incubated at 35 37° C. for 20-24 hours. In addition, a control plate, using BHI agar containing no test compound, was prepared and incubated at the beginning and the end of each test.
(§3) An additional plate containing a compound having known susceptibility patterns for the organisms being tested and belonging to the same antibiotic class as the test compounds was also prepared and incubated as a further control, as well as to provide test-to test comparability.
(§4) After incubation, each plate was read. The MIC (minimum inhibitory concentration) is defined as the lowest concentration of test compound yielding no growth, a slight haze, or sparsely isolated colonies on the inoculum spot as compared to the growth control containing no test compound.

[2] = test system: Enterococcus faecium ATCC 8043; settings: Enterococcus faecium, ATCC8043, 24 h
Procedure: as §1, §2, §3, §4

Escherichia coli DC-2 = settings: DC2; Escherichia coli DC-2; BHI agar, 20-24 h; read-out: MIC
Procedure: as §1, §2, §3, §4

Escherichia coli JUHL = settings: Escherichia coli JUHL; BHI agar, 20-24 h; read-out: MIC
Procedure: as §1, §2, §3, §4

Escherichia coli SS = settings: BHI agar, 20-24 h
Procedure: as §1, §2, §3, §4

[3] = test system: Klebsiella pneumoniae ATCC 8045; settings: ATCC8045; Klebsiella pneumoniae ATCC 8045; BHI agar, 20-24 h; read-out: MIC
Procedure: as §1, §2, §3, §4

[4] = test system: Micrococcus luteus ATCC 4698; settings: Micrococcus luteus, ATCC4698, 24 h, BHI agar, 20-24 h
Procedure: as §1, §2, §3, §4

[5] = test system: Micrococcus luteus ATCC 9341; settings: 20-24 h
Procedure: as §1, §2, §3, §4

[6] = test system: Providencia stuartii CMX 640; settings: CMX640; Providencia stuartii CMX 640; BHI agar, 20-24 h; read-out: MIC
Procedure: as §1, §2, §3, §4

[7] = test system: Pseudomonas aeruginosa A5007
Procedure: as §1, §2, §3, §4

[8] = test system: Pseudomonas aeruginosa BMH10; settings: BHI agar, 20-24 h
Procedure: as §1, §2, §3, §4

[9] = test system: Pseudomonas aeruginosa K799/61
Procedure: as §1, §2, §3, §4

[10] = test system: Pseudomonas aeruginosa K799/WT
Procedure: as §1, §2, §3, §4

Pseudomonas cepacia 2961 = settings: Burkholderia cepacia, BHI agar, 20-24 h, read-out: MIC
Procedure: as §1, §2, §3, §4

[11] = test system: Staphylococcus aureus 45 RAR2; settings: Staphylococcus aureus, 45RAR2, 24 h, BHI agar, 20-24 h
Procedure: as §1, §2, §3, §4

Staphylococcus aureus 45 = settings: BHI agar, 20-24 h, read-out: MIC
Procedure: as §1, §2, §3, §4

[12] = test system: Staphylococcus aureus A5177; settings: Staphylococcus aureus A5177, BHI agar, 20-24 h
Procedure: as §1, §2, §3, §4

[13] = test system: Staphylococcus aureus ATCC 6538P; settings: Staphylococcus aureus, ATCC6538P, 24 h, BHI agar, 20-24 h
Procedure: as §1, §2, §3, §4

[14] = test system: Staphylococcus epidermidis 3519; settings: BHI agar, 20-24 h
Procedure: as §1, §2, §3, §4

[15] = test system: Streptococcus agalactiae CMX 508; settings: Streptococcus agalactiae, CMX508, 24 h, BHI agar, 20-24 h
Procedure: as §1, §2, §3, §4

[16] = test system: Streptococcus bovis A5169; settings: Streptococcus equinus, BHI agar, 20-24 h
Procedure: as §1, §2, §3, §4

[17] = test system: Streptococcus pyrogenes 2548 INDUC; settings: BHI agar, 20-24 h
Procedure: as §1, §2, §3, §4

[18] = test system: Streptococcus pyrogenes EES61; settings: BHI agar, 20-24 h, read-out: MIC
Procedure: as §1, §2, §3, §4

[19] = test system: Staphylococcus aureus CMX 503A; settings: Staphylococcus aureus, CMX503A, 24 h, BHI agar, 20-24 h, read-out: MIC
Procedure: as §1, §2
as §3, with “comparability. Erythromycin A was used for this purpose.” for “comparability.”
as §4

[20] = test system: Staphylococcus aureus CMX 553; settings: Staphylococcus aureus, CMX553, 24 h, BHI agar, 20-24 h, read-out: MIC
Procedure: as §1, §2
as §3, with “comparability. Erythromycin A was used for this purpose.” for “comparability.”
as §4

[21] = test system: Staphylococcus aureus CMX 686B; settings: CMX686B, BHI agar, 20-24 h, read-out: MIC
Procedure: as §1, §2
as §3, with “comparability. Erythromycin A was used for this purpose.” for “comparability.”
as §4

Acinetobacter SP CMX 669 = settings: Acinetobacter, SPCMX669, 24 h
Procedure: as §1, §2, §3, §4

Escherichia coli H560 = settings: Escherichia coli, H560, 24 h
Procedure: as §1, §2, §3, §4

Compound	MIC [1] [µg/mL]	MIC [2] [µg/mL]	MIC (Escherichia coli DC-2) [µg/mL]	MIC (Escherichia coli JUHL) [µg/mL]	MIC [3] [µg/mL]	MIC [4] [µg/mL]	MIC [6] [µg/mL]	MIC (Pseudomonas cepacia 2961) [µg/mL]	MIC [11] [µg/mL]	MIC (Staphylococcus aureus 45) [µg/mL]	MIC [13] [µg/mL]	MIC [15] [µg/mL]	MIC [18] [µg/mL]	MIC [19] [µg/mL]	MIC [20] [µg/mL]	MIC [21] [µg/mL]	other results
CC[C@H]1OC(=O)[C@H](C)[C@@H](O[C@H]2C[C@@](C)(OC)[C@H](NC(=O)OCc3ccccc3)[C@H](C)O2)[C@H](C)[C@@H](O[C@@H]2O[C@H](C)C[C@H](N(C)C)[C@H]2O)[C@](C)(O)C[C@@H](C)[C@@H]2O[C@@]1(C)C(=O)[C@H]2C [Example 7, (4"R,9S)-9-Deoxo-4",11,12-trideoxy-9,12-epoxy-11-oxo-4"-[[(phenylmethoxy)carbonyl]amino]erythromycin A]	100 (≈ 118 µM)	0.1 (≈ 0.118 µM)	100 (≈ 118 µM)	> 100	100 (≈ 118 µM)	0.2 (≈ 0.236 µM)	> 100	> 100	0.39 (≈ 0.459 µM)	0.2 (≈ 0.236 µM)	0.2 (≈ 0.236 µM)	0.05 (≈ 0.0589 µM)	0.1 (≈ 0.118 µM)	0.2 (≈ 0.236 µM)	0.2 (≈ 0.236 µM)	0.2 (≈ 0.236 µM)	MIC (Escherichia coli SS; read-out: MIC): 1.56 µg/mL (≈ 1.84 µM); MIC ([5]; ATCC9341, BHI agar, read-out: MIC): 0.05 µg/mL (≈ 0.0589 µM); MIC ([7]; Pseudomonas aeruginosa A5007, BHI agar, 20-24 h, read-out: MIC): > 100 µg/mL; MIC ([8]; read-out: MIC): 100 µg/mL (≈ 118 µM); MIC ([9]; Pseudomonas aeruginosa K799/61, BHI agar, 20-24 h, read-out: MIC): 0.78 µg/mL (≈ 0.919 µM); MIC ([10]; Pseudomonas aeruginosa K799/WT, BHI agar, 20-24 h, read-out: MIC): 100 µg/mL (≈ 118 µM); MIC ([12]; read-out: MIC): 0.39 µg/mL (≈ 0.459 µM); MIC ([14]; Staphylococcus epidermidis, 3519, 24 h): 0.39 µg/mL (≈ 0.459 µM); MIC ([16]; read-out: MIC): 0.1 µg/mL (≈ 0.118 µM); MIC ([17]; read-out: MIC): 0.39 µg/mL (≈ 0.459 µM)
CC[C@H]1OC(=O)[C@H](C)[C@@H](O[C@H]2C[C@@](C)(OC)[C@H](N)[C@H](C)O2)[C@H](C)[C@@H](O[C@@H]2O[C@H](C)C[C@H](N(C)C)[C@H]2O)[C@](C)(O)C[C@@H](C)[C@@H]2O[C@@]1(C)C(=O)[C@H]2C [Example 8, (4"R,9S)-4"-Amino-9-deoxo-4",11,12-trideoxy-9,12-epoxy 11-oxoerythromycin A]	> 100	0.05 (≈ 0.0699 µM)	100 (≈ 140 µM)	100 (≈ 140 µM)	100 (≈ 140 µM)	0.05 (≈ 0.0699 µM)	> 100	> 100	0.2 (≈ 0.28 µM)	0.2 (≈ 0.28 µM)	0.2 (≈ 0.28 µM)	0.02 (≈ 0.028 µM)	0.01 (≈ 0.014 µM)	0.2 (≈ 0.28 µM)	0.1 (≈ 0.14 µM)	0.2 (≈ 0.28 µM)	MIC (Acinetobacter SP CMX 669): 6.2 µg/mL (≈ 8.67 µM); MIC (Escherichia coli H560): 25 µg/mL (≈ 35 µM); MIC (Escherichia coli SS; Escherichia coli, 24 h): 0.2 µg/mL (≈ 0.28 µM); MIC ([5]; Micrococcus luteus, ATCC9341, 24 h, BHI agar): 0.02 µg/mL (≈ 0.028 µM); MIC ([7]; Pseudomonas aeruginosa, A5007, 24 h): > 100 µg/mL; MIC ([8]; Pseudomonas aeruginosa, BMH10, 24 h): 100 µg/mL (≈ 140 µM); MIC ([9]; Pseudomonas aeruginosa, K799/61, 24 h): 0.78 µg/mL (≈ 1.09 µM); MIC ([10]; Pseudomonas aeruginosa, K799/WT, 24 h): > 100 µg/mL; MIC ([12]; Staphylococcus aureus, A5177, 24 h): 0.39 µg/mL (≈ 0.546 µM); MIC ([14]; read-out: MIC): 0.2 µg/mL (≈ 0.28 µM); MIC ([16]; A5169, 24 h): 0.05 µg/mL (≈ 0.0699 µM); MIC ([17]; Streptococcus, 2548INDUC, 24 h): 0.39 µg/mL (≈ 0.546 µM)
